Test [1] relates to phosphorylation of AKT on Ser473 as a readout of the PI3K pathway in T-47D (heterozygous PIK3CA H1047R) cells. Description: PI3K pathway activation assay, pAKT Ser473 HTRF, T-47D cells. The class given is cell-based. To be noted: two hours of treatment. Summed up: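 pAKT Ser473 measured by HTRF in SKBR3 (PIK3CA WT) and T-47D (PIK3CA H1047R) cells, 4,000/well. Signal normalised to background and DMSO controls as percent inhibition.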

For test [2], the system named is phosphorylation of AKT on Ser473 as a readout of the PI3K pathway in SKBR3 (PIK3CA WT) cells. Description: PI3K pathway activation assay, pAKT Ser473 HTRF, SKBR3 cells. It is filed as cell-based. Conditions: two hours of treatment. On the procedure:
The inhibitory activity of compounds was evaluated by measuring phosphorylation of AKT on Ser473 as a readout of the PI3K pathway using HTRF (CisBio catalog number: 64AKSPE). These studies were conducted in the T-47D (heterozygous PIK3CA H1047R) and SKBR3 (PIK3CA WT) cell lines. Cells were maintained in a 37° C. incubator at 5% CO2 in the following media: T-47D: RPMI 1640, ATCC© Modification (Gibco, A10491-01) supplemented with 10% v/v FBS (Gibco, 26140-079), 1% penicillin streptomycin (Gibco, 15140-122), and 7.4 ug/mL insulin (MilliporeSigma, I9278); SKBR3: McCoy's 5a (Modified) Medium (Gibco, 16600-082) supplemented with 10% v/v FBS (Gibco, 26140-079). Cells were seeded in 384-well plates at a density of 4,000 cells/well. Compounds dissolved in DMSO were added using a digital dispense (D300E, Tecan) 10-point serial dilution. After two hours of treatment, cells were lysed for thirty minutes and then incubated with detection reagents per HTRF kit material and manufacturer's instructions. Fluorescence signal was measured with a multimode plate reader (Envision 2105, Perkin Elmer). Fluorescent signal was normalized to background and DMSO controls to obtain percent inhibition/activity for each compound.

Each structure is given as a SMILES string. Where two headings read alike, the source gives them in different places.

`Cc1cc(C(C)Nc2ccccc2C(=O)O)c2nc(N3C[C@@H]4C(C(=O)N(C)C5CCC5)[C@@H]4C3)n(C)c(=O)c2c1` (stereo partly drawn) [Example 82, 2-((1-(2-((1R,5S,6R)-6-(Cyclobutyl(methyl)carbamoyl)-3-azabicyclo[3.1.0]hexan-3-yl)-3,6-dimethyl-4-oxo-3,4-dihydroquinazolin-8-yl)ethyl)amino)benzoic acid]: the IC50 (in general, the point on the concentration scale where inhibition reaches its midpoint) was below 500 nM in test [1] (read-out: T47D pAKT IC50) and above 10 µM in test [2].

Regarding `Cc1cc(C(C)Nc2ccccc2C(=O)O)c2nc(N3C[C@@H]4[C@H](C3)[C@H]4C(=O)N(C)C)n(C)c(=O)c2c1` (stereo partly drawn) [Example 90, 2-((1-(2-((1R,5S,6R)-6-(Dimethylcarbamoyl)-3-azabicyclo[3.1.0]hexan-3-yl)-3,6-dimethyl-4-oxo-3,4-dihydroquinazolin-8-yl)ethyl)amino)benzoic acid], the IC50 in test [1] (read-out: T47D pAKT IC50) was 500 to 10000 nM; in test [2] it was above 10 µM.

On to `Cc1cc(C(C)Nc2ccccc2C(=O)O)c2nc(N3Cc4ccccc4C3)n(C3CC(CO)(CO)C3)c(=O)c2c1` (stereo not drawn) [Example 98, 2-((1-(3-(3,3-Bis(hydroxymethyl)cyclobutyl)-2-(isoindolin-2-yl)-6-methyl-4-oxo-3,4-dihydroquinazolin-8-yl)ethyl)amino)benzoic acid], for which the IC50 in test [1] (Homo sapiens, T47D, 2 h) is below 500 nM; in test [2] (Homo sapiens, SK-BR-3, 2 h), above 10 µM.

As to `COc1ccc(NC(C)c2cc(C)cc3c(=O)n(C)c(N4CC5CC5C4)nc23)c(C(=O)O)n1` (stereo not drawn) [Example 119, 3-[1-[2-(3-Azabicyclo[3.1.0]hexan-3-yl)-3,6-dimethyl-4-oxoquinazolin-8-yl]ethylamino]-6-methoxypyridine-2-carboxylic acid], the IC50 in test [1] (Homo sapiens, T47D, 2 h) is 500 to 10000 nM; in test [2] (Homo sapiens, SK-BR-3, 2 h), above 10 µM.

Consider `Cc1cc(C(C)Nc2ccc(C)nc2C(=O)O)c2nc(N3CC4CC4C3)n(C)c(=O)c2c1` (stereo not drawn) [Example 120, 3-[1-[2-(3-Azabicyclo[3.1.0]hexan-3-yl)-3,6-dimethyl-4-oxoquinazolin-8-yl]ethylamino]-6-methylpyridine-2-carboxylic acid], for which the IC50 is 500 to 10000 nM in test [1] (Homo sapiens, T47D, 2 h) and above 10 µM in test [2] (Homo sapiens, SK-BR-3, 2 h).

In the case of `Cc1cc(C(C)Nc2ccc(F)cc2C(=O)O)c2nc(N3CC4CC4C3)n(C)c(=O)c2c1` (stereo not drawn) [Example 123, 2-[1-[2-(3-Azabicyclo[3.1.0]hexan-3-yl)-3,6-dimethyl-4-oxoquinazolin-8-yl]ethylamino]-5-fluorobenzoic acid], the IC50 in test [1] (Homo sapiens, T47D, 2 h) was below 500 nM; in test [2] (Homo sapiens, SK-BR-3, 2 h), above 10 µM.

For the origin of these results see patent US20240124422A1, “MUTANT PI3K-ALPHA INHIBITORS AND THEIR USE AS PHARMACEUTICALS” (Prelude Therapeutics Incorporated, priority 2022, published 2024).
